The text below walks through data of ChEMBL document CHEMBL1157889, “Peripheral site acetylcholinesterase inhibitors targeting both inflammation and cholinergic dysfunction” (Bioorg Med Chem Lett, 2010).

Sequence of Acetylcholinesterase (O42275 whole entry): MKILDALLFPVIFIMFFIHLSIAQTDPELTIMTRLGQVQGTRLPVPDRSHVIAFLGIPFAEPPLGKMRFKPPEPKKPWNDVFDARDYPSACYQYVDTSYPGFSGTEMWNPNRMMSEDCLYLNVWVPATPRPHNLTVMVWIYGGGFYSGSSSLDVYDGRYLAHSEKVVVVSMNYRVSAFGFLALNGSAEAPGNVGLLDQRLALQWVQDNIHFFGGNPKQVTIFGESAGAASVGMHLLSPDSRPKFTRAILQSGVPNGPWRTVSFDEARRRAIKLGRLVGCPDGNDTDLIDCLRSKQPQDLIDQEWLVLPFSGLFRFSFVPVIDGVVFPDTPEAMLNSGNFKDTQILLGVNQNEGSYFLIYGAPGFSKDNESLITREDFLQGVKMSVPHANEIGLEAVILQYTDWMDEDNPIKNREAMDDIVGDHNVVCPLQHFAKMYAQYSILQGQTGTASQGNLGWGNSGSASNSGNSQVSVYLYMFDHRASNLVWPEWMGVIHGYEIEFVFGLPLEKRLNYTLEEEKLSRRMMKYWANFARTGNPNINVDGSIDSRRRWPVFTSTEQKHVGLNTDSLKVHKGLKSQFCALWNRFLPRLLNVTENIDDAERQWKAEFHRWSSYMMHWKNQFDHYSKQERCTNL

System in the first data set: not listed separately
Kind of data set: Chemical stability assessed as hydrolysis half life in presence of 80% human plasma. It counts as ADME, cell-free.
For `CC(C)(C)CCOC(=O)Oc1ccc(COC(=O)Cc2ccccc2Nc2c(Cl)cccc2Cl)cc1`, the t1/2 worked out at 5.95 h.
Take `COc1ccc2c(c1)c(CC(=O)OCc1ccc(OC(=O)OCCC(C)(C)C)cc1)c(C)n2C(=O)c1ccc(Cl)cc1`: the t1/2 came to 7.8 h.
The same measure, in the same setting: with `CC(C)Cc1ccc(C(C)C(=O)OCc2ccc(OC(=O)OCCC(C)(C)C)cc2)cc1` (centres undefined) the figure was 3.4 h.
Regarding `COc1ccc2cc([C@H](C)C(=O)OCc3ccc(OC(=O)OCC[Si](C)(C)C)cc3)ccc2c1`, the t1/2 was 4.22 h.
`COc1ccc2cc([C@H](C)C(=O)OCc3ccc(OC(=O)OCCC(C)(C)C)cc3)ccc2c1`: the t1/2 came to 2.25 h.
Still for that read-out and setting: with `CC(C)(C)CCOC(=O)Cc1ccccc1Nc1c(Cl)cccc1Cl` the figure was 1.85 h; with `COc1ccc2cc([C@H](C)C(=O)OCCC(C)(C)C)ccc2c1`, 0.633 h.
As to `COc1ccc2cc([C@H](C)C(=O)OCC[Si](C)(C)C)ccc2c1`, the t1/2 came to 1.05 h.

The next data set addresses Acetylcholinesterase (Electrophorus electricus, UniProt O42275). Kind of data set: Inhibition of electric eel AChE by Ellman's method. For orientation: In Ellman's method for cholinesterases, released thiocholine reacts with DTNB.
`CC(C)(C)CCOC(=O)Oc1ccc(COC(=O)Cc2ccccc2Nc2c(Cl)cccc2Cl)cc1` came in with an IC50 of 510 nM.

For orientation: IC50 means the concentration that gives 50% inhibition. High values mean weaker potency in that assay, low ones greater potency in that assay.
